Patent publication EP1914236A1 (Ortho-McNeil Pharmaceutical, Inc., priority 2002, dated 2003)
Like-named read-outs stand apart in the source and are kept apart here.

How the values were obtained:
[1] = molecular target: T1, human B2 bradykinin receptors (Homo sapiens, UniProt P30411); assay: Bradykinin B2 (BK2) Receptor Binding Assay
T1 construct: purchased Receptor Biology, Inc. (Baltimore, MD); host or cells: CHO-K1 cells transfected with the human B2 receptor (membranes)
T1 sequence (P30411 1-391): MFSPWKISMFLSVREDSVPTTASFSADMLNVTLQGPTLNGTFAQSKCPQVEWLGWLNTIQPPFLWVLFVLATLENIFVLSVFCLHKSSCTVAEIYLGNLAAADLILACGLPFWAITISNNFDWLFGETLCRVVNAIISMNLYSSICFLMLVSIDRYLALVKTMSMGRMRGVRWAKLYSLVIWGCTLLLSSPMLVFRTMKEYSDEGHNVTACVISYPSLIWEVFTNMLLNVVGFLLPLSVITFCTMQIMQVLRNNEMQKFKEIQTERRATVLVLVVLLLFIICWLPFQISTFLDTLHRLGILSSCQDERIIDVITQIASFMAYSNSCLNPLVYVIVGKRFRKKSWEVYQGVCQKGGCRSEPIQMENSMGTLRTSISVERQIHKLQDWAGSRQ
In short: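 Membranes came from CHO-K1 cells expressing human B2 receptors; bound radioligand was collected by filtration and washed with cold 10 mM HEPES, pH 7.5. Single concentrations gave % inhibition of specific binding, and concentration ranges gave Ki values.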

[2] = Graded Abdominal Irritant Test (GrAIT); type: in vivo; details: for % Inhibition: 30 minutes before kaolin (100 mg/kg intraperitoneally), responses counted for 15 minutes, dose not given; for ED50: log dose regression analysis
Experimental: The Graded Abdominal Irritant Test (GrAIT) is a modification of the methods described by Koster et al. (Koster R., Anderson M and DeBeer E. J. Fed. Proc. 1959, 18, 412). Prior to the test (30 minutes for oral or subcutaneous administration), each animal was administered a known analgesic, a test compound, or vehicle (0.05N HCl) by one of two routes (oral or subcutaneous).
Kaolin (100 mg/kg) was injected intraperitoneally (using a standard 23G needle) at a volume of 10mL/kg of body weight. Following the administration of the chemical agent, the animals were placed in glass bell jars (approximately 15cm in diameter with wood chips on the bottom). […] A contraction of the abdominal musculature and an elongation of the body, which extends through to the hindlimbs, characterize this response. The responses were counted during the 15-minute time period after the injection of the kaolin. A mechanical counter or a personal computer was used to collect the number of counts per animal, and animals were observed no more than 5 at a time.
The mean number of counts (±SEM) for a group of animals receiving a known analgesic or test compound was compared to the mean for the group of animals which received only vehicle pretreatment (Control group). For each dose, % inhibition of the response was calculated. For each test compound, the EDso value was calculated using a log dose regression analysis program (PharmTools software).

CHO-hB2 cell membranes = molecular target: T2, CHO-hB2 cell membranes (Homo sapiens, UniProt P30411); assay: [35S]GTPγS Binding Assay in CHO-hB2 Cell Membranes; type: biochemical
T2 construct: purchased Receptor Biology, Inc. (Baltimore, MD); host or cells: CHO-hB2 cells (membranes)
T2 sequence (P30411 1-391): T1 sequence (P30411 1-391)
Experimental: CHO-hB2 cell membranes were purchased from Receptor Biology, Inc. (Baltimore,MD). 10 mg/mL of membrane protein was suspended in 10 mM TRIS-HC pH 7.2, 2 mM EDTA, 10% sucrose.
Membranes were added into 15 mL ice cold binding assay buffer. The assay buffer contained 50 mM HEPES, pH 7.6, 5 mM MgCl2, 100 mM NaCl, 1 mM DTT and 1 mM EDTA. The membrane suspension was homogenized twice with a Polytron and centrifuged at 3000 rpm for 10 min. The supernatant was then centrifuged at 18,000 rpm for 20 min. The pellet was saved in a tube and resuspended.
The pellet membranes (40 µg/mL) were preincubated with SPA (scintillation proximity assay) beads (20 mg/mL) at 25C° for 45 min in the assay buffer. The SPA beads (5 mg/mL) coupled with membranes (10 µg/mL) were then incubated with 0.5 nM [^35S]GTPγS in the same HEPES buffer containing 50 µM GDP in total volume of 200 µL. Bradykinin was used to stimulate [^35S]GTPγS binding. Varying concentrations of drugs were incubated with bradykinin to inhibit bradykinin-stimulated [^35S]GTPγS binding. The basal binding was tested in the absence of bradykinin and no specific binding was tested in the present 10 µM unlabeled GTPγS. The radioactivity was quantified on a Packard Top Count, and calculated. % of Basal = (stimulated binding-non specific binding)/(basal binding-non specific binding) × 100. [formula]

[3] = membranes of CHO-K1 cells transfected with human B2 bradykinin receptors, ~0.25 nM [3H]NPC17731, 60 min at 25°C
[4] = number in parentheses, bradykinin-stimulated [35S]GTPγS binding, test concentration not given
[5] = word part of the cell, effect on bradykinin-stimulated [35S]GTPγS binding

Row | Compound | Ki [1, 3] [µM] | % Inhibition ([2]; po) | ED50 ([2]; po) [µmol/kg] | Functional Activity (% Basal) (CHO-hB2 cell membranes; [4]) | Functional Activity (CHO-hB2 cell membranes; [5]) | % Inhibition ([2]; sc) [%] | Ki [1] [µM] | Functional Activity (CHO-hB2 cell membranes) | Functional Activity (% Basal) (CHO-hB2 cell membranes)
1 | Cc1ccc2cccc(OCc3c(C)ccc(N(C)C(=O)Cc4ccc(C(=O)c5ccc(Cl)nc5)n4C)c3C)c2n1 [Compound 77] | 0.306 | 70 po % | 80.9 | 62 | Antagonist | – | – | – | –
2 | Cc1ccc2cccc(OCc3c(C)ccc(N(C)C(=O)Cc4ccc(C(=O)c5ccc(C#N)nc5)n4C)c3C)c2n1 [Compound 78] | 0.286 | 82 po % | 114 | 83 | Antagonist | – | – | – | –
3 | Cc1ccc2cccc(OCc3c(C)ccc(N(C)C(=O)Cc4ccc(C(=O)c5ccc(C#N)cc5)n4C)c3C)c2n1 [Compound 79, 2-[5-(4-Cyano-benzoyl)-1-methyl-1H-pyrrol-2-yl]-N-[2,4-dimethyl-3-(2-methyl-quinolin-8-yloxymethyl)-phenyl]-N-methyl-acetamide] | 0.069 | 68 po % | 61.3 | 100 | Antagonist | – | – | – | –
4 | Cc1ccc2cccc(OCc3c(C)ccc(N(C)C(=O)CCc4ccc(C(=O)c5ccc(Cl)nc5)n4C)c3C)c2n1 [Compound 88] | 0.126 | -24% | – | 41 | Antagonist | 96 | – | – | –
5 | Cc1ccc2cccc(OCc3c(Cl)ccc(N(C)C(=O)CCc4ccc(C(=O)c5ccc(Cl)nc5)n4C)c3Cl)c2n1 [Compound 89] | 0.057 | 98po % | 22.5 | 51 | Antagonist | – | – | – | –
6 | Cc1ccc2cccc(OCc3c(C)ccc(N(C)C(=O)CCc4ccc(C(=O)c5ccc(C#N)cc5)n4C)c3C)c2n1 [Compound 90] | 0.046 | 45% | – | 50 | Antagonist | 100 | – | – | –
7 | Cc1ccc2cccc(OCc3c(Cl)ccc(N(C)C(=O)CCc4ccc(C(=O)c5ccc(C#N)cc5)n4C)c3Cl)c2n1 [Compound 91] | – | 23% | – | – | – | 97.4 | 0.015 | Antagonist (58) | Antagonist (58) % Basal
